In the experiment the target is T1, αβ-tubulin (β-tubulin, colchicine site) (Bos taurus, UniProt P81947+Q6B856).
T1 construct: gene TUBB2B; calf brain tubulin; with α-tubulin
Description: fluorescence competition: displacement of TUB091 fluorescence by TUB092, giving Ka ([…] GTP). Conditions: read-out: fluorescence competition: displacement of TUB091 fluorescence by TUB092, giving. It is filed as binding.

The structures appear in SMILES notation.

For the compound `COc1ccc(/C=C(\C)C(=O)c2cc(OC)c3c(c2)OCO3)cc1N` [compound 11, (E)-3-(3’’-amino-4’’-methoxyphenyl)-1-(5’-methoxy-3’,4’-methylendioxyphenyl)-2-methylprop-2-en-1-one], the Kd turned out to be 0.0909 µM.

These data come from publication PMC5362409, “Antivascular and antitumor properties of the tubulin-binding chalcone TUB091” (Oncotarget, 2016).
